Laboratory results from ChEMBL document CHEMBL4507289, “Data for DCP probe GSM1” (2021).

Experiments:
[1] = molecular target: Serine/threonine-protein kinase STK11 (Homo sapiens) (UniProt Q15831); details: Compound concentration 1000.0 nM
[2] = molecular target: Cyclin-dependent kinase 8 (Homo sapiens) (UniProt P49336); details: Compound concentration 1000.0 nM
[3] = molecular target: Casein kinase I isoform epsilon (Homo sapiens) (UniProt P49674); details: Compound concentration 1000.0 nM
[4] = tested on: Mast/stem cell growth factor receptor Kit (Homo sapiens), P10721 [V559D]; details: Compound concentration 1000.0 nM
[5] = molecular target: Serine/threonine-protein kinase pim-2 (Homo sapiens) (UniProt Q9P1W9); details: Compound concentration 1000.0 nM
Serine/threonine-protein kinase pim-2 (Homo sapiens), sequence (Q9P1W9 whole entry, looked up): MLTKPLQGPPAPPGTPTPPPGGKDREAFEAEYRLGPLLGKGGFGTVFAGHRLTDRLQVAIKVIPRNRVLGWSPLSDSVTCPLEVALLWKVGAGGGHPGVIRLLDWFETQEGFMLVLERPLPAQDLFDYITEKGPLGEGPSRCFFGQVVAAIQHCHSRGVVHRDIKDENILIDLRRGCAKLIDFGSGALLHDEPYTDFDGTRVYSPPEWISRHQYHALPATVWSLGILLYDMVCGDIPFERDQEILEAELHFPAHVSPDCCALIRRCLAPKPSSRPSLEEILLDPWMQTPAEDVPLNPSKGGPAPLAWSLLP

[6] = molecular target: cAMP-dependent protein kinase catalytic subunit beta (Homo sapiens) (UniProt P22694); details: Compound concentration 1000.0 nM
[7] = molecular target: Serine/threonine-protein kinase ICK (Homo sapiens) (UniProt Q9UPZ9); details: Compound concentration 1000.0 nM
[8] = molecular target: Mitogen-activated protein kinase 11 (Homo sapiens) (UniProt Q15759); details: Compound concentration 1000.0 nM
[9] = molecular target: Muscarinic acetylcholine receptor M3 (Homo sapiens) (UniProt P20309); details: Compound concentration 10.0 uM
[10] = molecular target: Serine/threonine-protein kinase Nek10 (Homo sapiens) (UniProt Q6ZWH5); details: Compound concentration 1000.0 nM
[11] = molecular target: Glycogen synthase kinase-3 alpha (Homo sapiens) (UniProt P49840); details: Compound concentration 1000.0 nM
[12] = molecular target: Ribosomal protein S6 kinase alpha-3 (Homo sapiens) (UniProt P51812); details: Compound concentration 1000.0 nM
[13] = molecular target: Serine/threonine-protein kinase VRK2 (Homo sapiens) (UniProt Q86Y07); details: Compound concentration 1000.0 nM
Serine/threonine-protein kinase VRK2 (Homo sapiens), sequence (Q86Y07 whole entry): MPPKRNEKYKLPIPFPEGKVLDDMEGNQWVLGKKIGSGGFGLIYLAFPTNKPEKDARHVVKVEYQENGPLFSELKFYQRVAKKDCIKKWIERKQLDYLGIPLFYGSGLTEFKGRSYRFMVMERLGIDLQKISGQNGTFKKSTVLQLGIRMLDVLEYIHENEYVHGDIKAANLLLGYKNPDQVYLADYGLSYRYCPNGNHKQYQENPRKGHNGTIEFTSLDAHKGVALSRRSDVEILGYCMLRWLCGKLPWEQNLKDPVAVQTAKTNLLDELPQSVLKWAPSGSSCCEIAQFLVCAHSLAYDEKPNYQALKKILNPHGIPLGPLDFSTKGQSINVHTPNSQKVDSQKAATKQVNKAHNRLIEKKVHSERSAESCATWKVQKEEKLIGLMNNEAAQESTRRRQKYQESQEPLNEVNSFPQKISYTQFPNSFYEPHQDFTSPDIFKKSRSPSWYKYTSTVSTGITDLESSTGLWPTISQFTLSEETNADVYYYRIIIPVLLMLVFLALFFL

[14] = molecular target: Cyclin-dependent kinase 5 (Homo sapiens) (UniProt Q00535); details: Compound concentration 1000.0 nM
Cyclin-dependent kinase 5 (Homo sapiens), sequence (Q00535 whole entry, looked up): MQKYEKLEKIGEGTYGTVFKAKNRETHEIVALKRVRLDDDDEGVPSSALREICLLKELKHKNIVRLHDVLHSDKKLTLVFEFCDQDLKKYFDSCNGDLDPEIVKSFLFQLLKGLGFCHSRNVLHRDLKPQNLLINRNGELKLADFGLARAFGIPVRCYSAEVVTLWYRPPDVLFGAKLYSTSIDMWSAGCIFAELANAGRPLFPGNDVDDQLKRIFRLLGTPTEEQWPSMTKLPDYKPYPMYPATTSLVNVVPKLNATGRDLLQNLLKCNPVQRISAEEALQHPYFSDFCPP

[15] = tested on: Receptor-type tyrosine-protein kinase FLT3 (Homo sapiens), P36888 [UNDEFINED MUTATION]; details: Compound concentration 1000.0 nM
[16] = molecular target: Serine/threonine-protein kinase 32B (Homo sapiens) (UniProt Q9NY57); details: Compound concentration 1000.0 nM
[17] = molecular target: Atypical kinase COQ8A, mitochondrial (Homo sapiens) (UniProt Q8NI60); details: Compound concentration 1000.0 nM
Atypical kinase COQ8A, mitochondrial (Homo sapiens), sequence (Q8NI60 163-647 limits assumed): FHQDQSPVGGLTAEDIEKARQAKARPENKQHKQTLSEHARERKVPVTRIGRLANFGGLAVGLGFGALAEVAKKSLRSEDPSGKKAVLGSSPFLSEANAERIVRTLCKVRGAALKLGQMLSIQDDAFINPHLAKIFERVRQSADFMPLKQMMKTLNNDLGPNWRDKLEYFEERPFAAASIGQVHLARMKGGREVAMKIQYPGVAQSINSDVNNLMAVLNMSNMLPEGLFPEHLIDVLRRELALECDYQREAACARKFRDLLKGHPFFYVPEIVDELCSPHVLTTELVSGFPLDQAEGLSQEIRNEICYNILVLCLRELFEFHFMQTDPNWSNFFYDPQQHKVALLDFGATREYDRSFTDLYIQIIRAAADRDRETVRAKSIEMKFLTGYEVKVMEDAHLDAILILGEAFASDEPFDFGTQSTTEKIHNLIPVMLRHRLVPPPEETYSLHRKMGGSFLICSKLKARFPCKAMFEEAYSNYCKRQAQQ

[18] = molecular target: Cyclin-dependent kinase-like 2 (Homo sapiens) (UniProt Q92772); details: Compound concentration 1000.0 nM
[19] = molecular target: Mitogen-activated protein kinase 8 (Homo sapiens) (UniProt P45983); details: Compound concentration 1000.0 nM
[20] = molecular target: GABA-A receptor; anion channel (Rattus norvegicus) (UniProt O09028+P15431+P18506+P18508+P19969+P20236+P23574+P23576+P28471+P28473+P30191+P62813+P63079+P63138+Q91ZM7+Q9ES14); details: Compound concentration 10.0 uM
[21] = molecular target: Ephrin type-A receptor 7 (Homo sapiens) (UniProt Q15375); details: Compound concentration 1000.0 nM
[22] = molecular target: Ribosomal protein S6 kinase alpha-6 (Homo sapiens) (UniProt Q9UK32); details: Compound concentration 1000.0 nM
[23] = molecular target: Tyrosine-protein kinase HCK (Homo sapiens) (UniProt P08631); details: Compound concentration 1000.0 nM
Tyrosine-protein kinase HCK (Homo sapiens), sequence (P08631 2-526 limits assumed): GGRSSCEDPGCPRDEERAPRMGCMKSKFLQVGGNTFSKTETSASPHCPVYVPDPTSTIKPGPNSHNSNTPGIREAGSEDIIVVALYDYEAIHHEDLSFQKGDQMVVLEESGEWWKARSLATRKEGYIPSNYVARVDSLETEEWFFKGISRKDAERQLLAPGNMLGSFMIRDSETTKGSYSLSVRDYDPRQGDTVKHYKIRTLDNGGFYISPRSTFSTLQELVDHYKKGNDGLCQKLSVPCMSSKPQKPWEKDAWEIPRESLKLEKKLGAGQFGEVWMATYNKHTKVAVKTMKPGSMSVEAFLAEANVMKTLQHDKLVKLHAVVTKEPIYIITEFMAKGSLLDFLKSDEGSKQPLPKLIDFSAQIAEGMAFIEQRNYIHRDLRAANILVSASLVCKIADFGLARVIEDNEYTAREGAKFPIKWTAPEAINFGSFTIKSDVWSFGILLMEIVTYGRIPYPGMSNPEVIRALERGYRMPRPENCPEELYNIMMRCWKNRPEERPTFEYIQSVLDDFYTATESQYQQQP

[24] = molecular target: Serine/threonine-protein kinase DCLK2 (Homo sapiens) (UniProt Q8N568); details: Compound concentration 1000.0 nM
[25] = molecular target: Tyrosine-protein kinase JAK1 (Homo sapiens) (UniProt P23458); details: Compound concentration 1000.0 nM
[26] = molecular target: Membrane-associated tyrosine- and threonine-specific cdc2-inhibitory kinase (Homo sapiens) (UniProt Q99640); details: Compound concentration 1000.0 nM
[27] = molecular target: Serine/threonine-protein kinase 38 (Homo sapiens) (UniProt Q15208); details: Compound concentration 1000.0 nM
[28] = molecular target: Muscle, skeletal receptor tyrosine-protein kinase (Homo sapiens) (UniProt O15146); details: Compound concentration 1000.0 nM
[29] = molecular target: Sodium-dependent noradrenaline transporter (Homo sapiens, UniProt P23975); details: Compound concentration 10.0 uM
Sodium-dependent noradrenaline transporter, sequence (P23975 whole entry): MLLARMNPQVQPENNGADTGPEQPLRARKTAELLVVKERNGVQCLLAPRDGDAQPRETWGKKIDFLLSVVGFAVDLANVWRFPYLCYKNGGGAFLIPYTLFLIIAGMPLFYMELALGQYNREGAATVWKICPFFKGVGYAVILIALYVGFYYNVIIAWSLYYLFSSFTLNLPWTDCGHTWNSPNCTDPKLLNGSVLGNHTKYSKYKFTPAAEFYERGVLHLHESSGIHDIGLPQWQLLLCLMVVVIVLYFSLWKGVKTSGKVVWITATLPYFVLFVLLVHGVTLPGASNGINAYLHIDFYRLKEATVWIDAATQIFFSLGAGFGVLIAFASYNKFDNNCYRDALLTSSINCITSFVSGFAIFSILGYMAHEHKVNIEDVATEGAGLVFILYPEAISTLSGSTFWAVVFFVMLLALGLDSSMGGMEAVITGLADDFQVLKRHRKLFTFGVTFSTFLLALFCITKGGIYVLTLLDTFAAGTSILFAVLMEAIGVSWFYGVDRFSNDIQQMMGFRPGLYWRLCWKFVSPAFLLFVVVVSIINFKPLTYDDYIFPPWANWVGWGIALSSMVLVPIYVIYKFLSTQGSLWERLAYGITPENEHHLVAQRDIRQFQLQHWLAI

[30] = tested on: Tyrosine-protein kinase ABL1 (Homo sapiens), P00519 [T315I]; details: Compound concentration 1000.0 nM
[31] = molecular target: Serine/threonine-protein kinase RIO2 (Homo sapiens) (UniProt Q9BVS4); details: Compound concentration 1000.0 nM
[32] = molecular target: TGF-beta receptor type-2 (Homo sapiens) (UniProt P37173); details: Compound concentration 1000.0 nM
TGF-beta receptor type-2 (Homo sapiens), sequence (P37173 whole entry): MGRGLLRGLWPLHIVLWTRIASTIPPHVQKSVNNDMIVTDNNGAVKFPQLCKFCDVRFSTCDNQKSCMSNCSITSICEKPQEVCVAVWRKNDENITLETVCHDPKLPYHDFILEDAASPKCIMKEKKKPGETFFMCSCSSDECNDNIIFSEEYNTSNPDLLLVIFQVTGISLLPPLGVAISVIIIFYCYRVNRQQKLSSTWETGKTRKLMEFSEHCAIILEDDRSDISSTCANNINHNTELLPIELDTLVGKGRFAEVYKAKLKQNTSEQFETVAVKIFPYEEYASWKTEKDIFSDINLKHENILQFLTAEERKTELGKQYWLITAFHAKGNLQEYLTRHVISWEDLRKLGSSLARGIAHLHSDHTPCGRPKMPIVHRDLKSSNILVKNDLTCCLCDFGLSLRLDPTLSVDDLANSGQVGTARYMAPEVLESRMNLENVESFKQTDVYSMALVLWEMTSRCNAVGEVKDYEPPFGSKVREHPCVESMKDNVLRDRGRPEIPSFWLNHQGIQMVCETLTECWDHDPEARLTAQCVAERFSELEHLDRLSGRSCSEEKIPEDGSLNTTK

[33] = molecular target: Serine/threonine-protein kinase ULK2 (Homo sapiens) (UniProt Q8IYT8); details: Compound concentration 1000.0 nM
Serine/threonine-protein kinase ULK2 (Homo sapiens), sequence (Q8IYT8 whole entry): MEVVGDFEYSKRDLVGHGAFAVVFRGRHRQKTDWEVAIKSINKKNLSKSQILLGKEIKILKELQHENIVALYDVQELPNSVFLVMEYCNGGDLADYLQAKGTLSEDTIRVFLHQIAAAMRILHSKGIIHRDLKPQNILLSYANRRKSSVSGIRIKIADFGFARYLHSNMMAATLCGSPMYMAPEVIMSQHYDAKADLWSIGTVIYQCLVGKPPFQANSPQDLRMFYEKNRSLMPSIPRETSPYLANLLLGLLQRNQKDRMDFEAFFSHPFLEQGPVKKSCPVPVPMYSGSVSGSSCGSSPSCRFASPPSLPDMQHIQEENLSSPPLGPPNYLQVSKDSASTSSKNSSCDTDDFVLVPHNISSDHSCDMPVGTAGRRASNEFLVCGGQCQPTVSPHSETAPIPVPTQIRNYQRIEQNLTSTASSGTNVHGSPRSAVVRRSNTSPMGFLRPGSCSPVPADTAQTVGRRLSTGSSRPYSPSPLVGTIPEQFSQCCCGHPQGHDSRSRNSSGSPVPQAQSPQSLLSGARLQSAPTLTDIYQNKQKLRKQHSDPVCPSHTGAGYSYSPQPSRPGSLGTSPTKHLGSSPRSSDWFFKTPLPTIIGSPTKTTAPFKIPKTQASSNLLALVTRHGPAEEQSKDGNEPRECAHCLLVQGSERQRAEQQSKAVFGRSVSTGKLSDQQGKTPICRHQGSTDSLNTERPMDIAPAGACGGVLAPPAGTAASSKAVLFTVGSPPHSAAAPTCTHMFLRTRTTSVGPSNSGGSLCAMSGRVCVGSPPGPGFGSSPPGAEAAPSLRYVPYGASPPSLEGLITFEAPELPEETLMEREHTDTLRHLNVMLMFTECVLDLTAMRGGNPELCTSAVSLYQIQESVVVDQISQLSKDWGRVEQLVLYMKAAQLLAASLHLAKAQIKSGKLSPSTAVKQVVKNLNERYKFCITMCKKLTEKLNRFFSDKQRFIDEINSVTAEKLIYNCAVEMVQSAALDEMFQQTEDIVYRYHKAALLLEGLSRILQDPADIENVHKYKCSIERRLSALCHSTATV

[34] = molecular target: Mitotic checkpoint serine/threonine-protein kinase BUB1 (Homo sapiens) (UniProt O43683); details: Compound concentration 1000.0 nM
[35] = molecular target: Phosphatidylinositol 4-phosphate 5-kinase type-1 gamma (Homo sapiens) (UniProt O60331); details: Compound concentration 1000.0 nM
Phosphatidylinositol 4-phosphate 5-kinase type-1 gamma (Homo sapiens), sequence (O60331 whole entry): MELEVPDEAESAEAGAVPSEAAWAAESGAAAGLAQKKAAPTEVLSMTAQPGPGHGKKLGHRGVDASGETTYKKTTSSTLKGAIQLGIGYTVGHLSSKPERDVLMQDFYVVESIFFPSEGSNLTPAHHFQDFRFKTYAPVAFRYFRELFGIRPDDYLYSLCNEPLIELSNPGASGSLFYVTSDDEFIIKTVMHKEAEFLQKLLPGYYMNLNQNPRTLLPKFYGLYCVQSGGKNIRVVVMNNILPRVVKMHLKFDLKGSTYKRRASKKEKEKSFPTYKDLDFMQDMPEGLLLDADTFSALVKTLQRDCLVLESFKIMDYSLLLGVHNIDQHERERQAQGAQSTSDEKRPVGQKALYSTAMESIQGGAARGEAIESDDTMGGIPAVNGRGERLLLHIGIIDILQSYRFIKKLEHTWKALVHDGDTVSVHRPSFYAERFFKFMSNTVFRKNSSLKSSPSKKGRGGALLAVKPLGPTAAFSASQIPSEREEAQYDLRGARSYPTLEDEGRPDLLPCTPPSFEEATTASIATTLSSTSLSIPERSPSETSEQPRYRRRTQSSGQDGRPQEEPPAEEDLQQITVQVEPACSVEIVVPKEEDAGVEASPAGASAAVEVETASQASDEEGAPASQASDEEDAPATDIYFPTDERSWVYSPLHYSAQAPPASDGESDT

[36] = tested on: ALK tyrosine kinase receptor (Homo sapiens), Q9UM73 [L1196M]; details: Compound concentration 1000.0 nM
[37] = molecular target: Serine/threonine-protein kinase 17A (Homo sapiens) (UniProt Q9UEE5); details: Compound concentration 1000.0 nM
[38] = molecular target: Serine/threonine-protein kinase MRCK beta (Homo sapiens) (UniProt Q9Y5S2); details: Compound concentration 1000.0 nM
[39] = molecular target: Serine/threonine-protein kinase 32A (Homo sapiens) (UniProt Q8WU08); details: Compound concentration 1000.0 nM
[40] = molecular target: Ankyrin repeat and protein kinase domain-containing protein 1 (Homo sapiens) (UniProt Q8NFD2); details: Compound concentration 1000.0 nM
[41] = molecular target: Activin receptor type-1 (Homo sapiens) (UniProt Q04771); details: Compound concentration 1000.0 nM
[42] = molecular target: Calcium/calmodulin-dependent protein kinase type 1B (Homo sapiens) (UniProt Q6P2M8); details: Compound concentration 1000.0 nM
[43] = tested on: Tyrosine-protein kinase ABL1 (Homo sapiens), P00519 [F317L]; details: Compound concentration 1000.0 nM

COc1cc(-c2cn([C@H]3CCc4c(F)cccc4N(CC(F)(F)F)C3=O)nn2)ccc1-n1cnc(C)c1
residual activity [1]: 100% | residual activity [2]: 100% | residual activity [3]: 80% | residual activity [4]: 100% | residual activity [5]: 100% | residual activity [6]: 95% | residual activity [7]: 65% | residual activity [8]: 90% | inhibition [9]: -4.42% | residual activity [10]: 100% | residual activity [11]: 100% | residual activity [12]: 100% | residual activity [13]: 100% | residual activity [14]: 100% | residual activity [15]: 100% | residual activity [16]: 100% | residual activity [17]: 100% | residual activity [18]: 67% | residual activity [19]: 52% | inhibition [20]: 22.6% | residual activity [21]: 100% | residual activity [22]: 100% | residual activity [23]: 100% | residual activity [24]: 100% | residual activity [25]: 100% | residual activity [26]: 100% | residual activity [27]: 89% | residual activity [28]: 100% | inhibition [29]: 87.1% | residual activity [30]: 85% | residual activity [31]: 100% | residual activity [32]: 100% | residual activity [33]: 100% | residual activity [34]: 100% | residual activity [35]: 90% | residual activity [36]: 100% | residual activity [37]: 100% | residual activity [38]: 100% | residual activity [39]: 100% | residual activity [40]: 100% | residual activity [41]: 100% | residual activity [42]: 100% | residual activity [43]: 78%

COc1cc(-c2cn([C@H]3CCc4ccccc4N(CC(F)(F)F)C3=O)nn2)ccc1-n1ccc(C)n1
residual activity [1]: 100% | residual activity [2]: 90% | residual activity [3]: 100% | residual activity [4]: 96% | residual activity [5]: 100% | residual activity [6]: 81% | residual activity [7]: 63% | residual activity [8]: 82% | inhibition [9]: -6.94% | residual activity [10]: 81% | residual activity [11]: 86% | residual activity [12]: 100% | residual activity [13]: 100% | residual activity [14]: 100% | residual activity [15]: 99% | residual activity [16]: 85% | residual activity [17]: 100% | residual activity [18]: 91% | residual activity [19]: 55% | inhibition [20]: -6.73% | residual activity [21]: 100% | residual activity [22]: 91% | residual activity [23]: 100% | residual activity [24]: 92% | residual activity [25]: 87% | residual activity [26]: 100% | residual activity [27]: 100% | residual activity [28]: 99% | inhibition [29]: 49.4% | residual activity [30]: 77% | residual activity [31]: 96% | residual activity [32]: 100% | residual activity [33]: 88% | residual activity [34]: 94% | residual activity [35]: 100% | residual activity [36]: 91% | residual activity [37]: 100% | residual activity [38]: 100% | residual activity [39]: 97% | residual activity [40]: 78% | residual activity [41]: 100% | residual activity [42]: 100% | residual activity [43]: 57%
